Source: patent US6262084A, “Compounds that inhibit the binding of integrins to their receptors” (Texas Biotechnology Corporation, priority 1999, dated 2001)

Molecular target: T1, α4β1 integrin (Homo sapiens, UniProt P05556+P13612)
T1 construct: Ramos cells fluorescently labeled with calcein; endogenous in cells; host or cells: Ramos cells
Experiment: Inhibition of adhesion of calcein-labeled Ramos cells to CS1 (fibronectin) peptide-conjugated ovalbumin
Format: cell-based
Conditions: for inhibition at 100 µM: Ramos, compound at a concentration of 100 μM, read-out: % A (percent inhibition of cell adhesion); for IC50: dose required to give 50% inhibition, Ramos cell adhesion to CS1-ovalbumin, 30 minutes at 37° C
Outline: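 Calcein-labelled Ramos cells (2.5×10^5/well) in TBS with 1 mM MgCl2, CaCl2 and MnCl2 adhered to CS1 peptide–ovalbumin coated at 5 μg/ml for 30 min at 37 °C, with or without compound. After washing, bound cells were lysed and read by fluorescence. IC50 is the dose giving 50% inhibition, and % inhibition was measured at 100 μM.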

T1 sequence (P13612 34-1032): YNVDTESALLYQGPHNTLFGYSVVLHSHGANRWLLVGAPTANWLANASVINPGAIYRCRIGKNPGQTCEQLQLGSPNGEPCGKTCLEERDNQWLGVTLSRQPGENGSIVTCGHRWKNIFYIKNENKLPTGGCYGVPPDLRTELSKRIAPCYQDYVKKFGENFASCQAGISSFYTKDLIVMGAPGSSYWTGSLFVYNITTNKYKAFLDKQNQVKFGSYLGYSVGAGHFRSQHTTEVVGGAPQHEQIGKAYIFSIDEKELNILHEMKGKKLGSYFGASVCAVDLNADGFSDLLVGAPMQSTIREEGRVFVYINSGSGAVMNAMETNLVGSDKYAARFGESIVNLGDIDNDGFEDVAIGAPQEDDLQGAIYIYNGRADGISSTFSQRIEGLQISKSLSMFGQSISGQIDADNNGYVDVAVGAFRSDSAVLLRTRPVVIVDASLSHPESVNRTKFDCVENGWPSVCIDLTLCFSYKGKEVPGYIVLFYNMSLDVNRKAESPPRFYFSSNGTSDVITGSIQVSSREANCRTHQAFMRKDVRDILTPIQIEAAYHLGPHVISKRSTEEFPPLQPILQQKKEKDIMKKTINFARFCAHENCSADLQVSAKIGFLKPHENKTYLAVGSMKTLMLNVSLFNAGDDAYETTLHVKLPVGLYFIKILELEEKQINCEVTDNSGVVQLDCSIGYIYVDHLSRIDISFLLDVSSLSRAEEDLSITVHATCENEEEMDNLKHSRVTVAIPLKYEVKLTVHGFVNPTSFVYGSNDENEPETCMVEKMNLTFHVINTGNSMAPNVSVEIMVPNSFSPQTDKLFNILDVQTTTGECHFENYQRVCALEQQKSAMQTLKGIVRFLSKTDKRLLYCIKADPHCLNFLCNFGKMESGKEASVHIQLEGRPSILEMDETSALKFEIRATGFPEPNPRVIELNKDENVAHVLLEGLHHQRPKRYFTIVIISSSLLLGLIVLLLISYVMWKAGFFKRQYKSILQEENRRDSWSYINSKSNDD
T1 sequence (P05556 21-798): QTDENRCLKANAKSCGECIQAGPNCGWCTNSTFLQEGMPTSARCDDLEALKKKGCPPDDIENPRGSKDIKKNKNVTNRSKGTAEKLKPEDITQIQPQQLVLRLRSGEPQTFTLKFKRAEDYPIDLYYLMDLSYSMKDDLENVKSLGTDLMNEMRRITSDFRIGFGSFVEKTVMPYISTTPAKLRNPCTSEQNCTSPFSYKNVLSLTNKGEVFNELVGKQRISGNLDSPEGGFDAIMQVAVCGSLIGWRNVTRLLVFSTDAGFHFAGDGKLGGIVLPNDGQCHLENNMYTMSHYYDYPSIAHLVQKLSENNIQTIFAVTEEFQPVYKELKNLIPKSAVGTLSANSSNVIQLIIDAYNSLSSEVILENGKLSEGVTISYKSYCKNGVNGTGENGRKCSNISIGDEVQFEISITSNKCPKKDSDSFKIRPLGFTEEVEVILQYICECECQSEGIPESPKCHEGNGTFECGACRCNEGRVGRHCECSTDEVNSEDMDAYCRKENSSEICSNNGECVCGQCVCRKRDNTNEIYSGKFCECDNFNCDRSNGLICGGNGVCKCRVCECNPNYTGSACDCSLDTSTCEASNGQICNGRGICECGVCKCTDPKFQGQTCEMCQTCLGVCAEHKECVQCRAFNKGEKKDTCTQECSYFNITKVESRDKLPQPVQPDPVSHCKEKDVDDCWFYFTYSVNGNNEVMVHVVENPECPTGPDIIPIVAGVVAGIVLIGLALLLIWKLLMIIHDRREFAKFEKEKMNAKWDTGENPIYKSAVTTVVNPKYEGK

Row | inhibition at 100 µM (Table 1) [%] | IC50 (Table 1) [nM] | IC50 (Table 2) [nM] | SMILES
1 | 100 | 300 | – | COC(=O)NCCCC[C@H](NC(=O)N[C@@H](CC(=O)O)c1ccc2c(c1)OCO2)C(=O)NCc1ccc(N)cc1 [(9S,13S)-9-{[(4-aminobenzyl)amino]carbonyl}-13-(1,3-benzodioxol-5-yl)-3,11-dioxo-2-oxa-4,10,12-triazapentadecan-15-oic acid]
2 | 100 | 2000 | – | O=C(O)C[C@H](NC(=O)N[C@@H](CCCCNC(=O)OCc1ccccc1)C(=O)NCCc1ccccn1)c1ccc2c(c1)OCO2 [(9S,13S)-13-(1,3-benzodioxol-5-yl)-3,11-dioxo-1-phenyl-9-({[2-(2-pyridinyl)ethyl]amino}carbonyl)-2-oxa-4,10,12-triazapentadecan-15-oic acid]
3 | 100 | 0.3 | – | Cc1ccccc1NC(=O)Nc1ccc(CNC(=O)[C@H](CCCCNC(=O)OCc2ccccc2)NC(=O)N[C@@H](CC(=O)O)c2ccc3c(c2)OCO3)cc1 [(9S,13S)-13-(1,3-benzodioxol-5-yl)-3,11-dioxo-1-phenyl-9-[({4-[(2-toluidinocarbonyl)amino]benzyl}amino)carbonyl]-2-oxa-4,10,12-triazapentadecan-15-oic acid]
4 | 100 | 3000 | – | O=C(O)C[C@H](NC(=O)N[C@@H](CCCCNC(=O)OCc1ccccc1)C(=O)NCCCN1CCCC1=O)c1ccc2c(c1)OCO2 [(9S,13S)-13-(1,3-benzodioxol-5-yl)-3,11-dioxo-9-({[3-(2-oxo-1-pyrrolidinyl)propyl]amino}carbonyl)-1-phenyl-2-oxa-4,10,12-triazapentadecan-15-oic acid]
5 | 100 | 400 | – | COC(=O)NCCCC[C@@H](CSc1ccccc1)NC(=O)N[C@@H](CC(=O)O)c1ccc2c(c1)OCO2 [(9S,13S)-13-(1,3-benzodioxol-5-yl)-3,11-dioxo-9-[(phenylsulfanyl)methyl]-2-oxa-4,10,12-triazapentadecan-15-oic acid]
6 | 20 | > 100000 | – | COC(=O)NCCCC[C@@H](CS(=O)(=O)c1ccccc1)NC(=O)N[C@@H](CC(=O)O)c1ccc2c(c1)OCO2 [(9S,13S)-13-(1,3-benzodioxol-5-yl)-3,11-dioxo-9-[(phenylsulfonyl)methyl]-2-oxa-4,10,12-triazapentadecan-15-oic acid]
7 | 97 | 5000 | – | COC(=O)NCCCC[C@H](NC(=O)N[C@@H](CC(=O)O)c1ccc2c(c1)OCO2)C(=O)NCC1CCNCC1 [(9S,13S)-13-(1,3-benzodioxol-5-yl)-3,11-dioxo-9-{[(4-piperidinylmethyl)amino]carbonyl}-2-oxa-4,10,12-triazapentadecan-15-oic acid]
8 | 100 | 0.4 | – | Cc1ccccc1CNc1ccc(CNC(=O)[C@H](CCCCNC(=O)OCc2ccccc2)NC(=O)N[C@@H](CC(=O)O)c2ccc3c(c2)OCO3)cc1 [(9S,13S)-13-(1,3-benzodioxol-5-yl)-9-[({4-[(2-methylbenzyl)amino]benzyl}amino)carbonyl]-3,11-dioxo-1-phenyl-2-oxa-4,10,12-triazapentadecan-15-oic acid]
9 | 95 | 1000 | – | COC(=O)NCCCC[C@H](NC(=O)N[C@@H](CC(=O)O)c1ccc2c(c1)OCO2)C(=O)NCc1ccc(N(Cc2ccccc2C)Cc2ccccc2C)cc1 [(9S,13S)-13-(1,3-benzodioxol-5-yl)-9-[({4-bis(2-methylbenzyl)amino]benzyl}amino)carbonyl]-3,11-dioxo-2-oxa-4,10,12-triazapentadecan-15-oic acid]
10 | 100 | 200 | – | COC(=O)NCCCC[C@H](NC(=O)N[C@@H](CC(=O)O)c1ccc2c(c1)OCO2)C(=O)NCc1ccc(OC)c(O)c1 [(9S,13S)-13-(1,3-benzodioxol-5-yl)-9-{[(3-hydroxy-4-methoxybenzyl)amino]carbonyl}-3,11-dioxo-2-oxa-4,10,12-triazapentadecan-15-oic acid]
11 | 100 | 2000 | – | O=C(O)C[C@H](NC(=O)N[C@@H](CCCCNC(=O)OCc1ccccc1)C(=O)NCCc1ccc(O)cc1)c1ccc2c(c1)OCO2 [(9S,13S)-13-(1,3-benzodioxol-5-yl)-9-{[(4-hydroxyphenethyl)amino]carbonyl}-3,11-dioxo-1-phenyl-2-oxa-4,10,12-triazapentadecan-15-oic acid]
12 | 100 | 6000 | – | COC(=O)NCCCC[C@H](NC(=O)N[C@@H](CC(=O)O)c1ccc2c(c1)OCO2)C(=O)NCCc1ccc(O)cc1 [(9S,13S)-13-(1,3-benzodioxol-5-yl)-9-{[(4-hydroxyphenethyl)amino]carbonyl}-3,11-dioxo-2-oxa-4,10,12-triazapentadecan-15-oic acid]
13 | 100 | 4000 | – | CSCC[C@@H](CSc1ccccc1)NC(=O)N[C@H](CSc1ccccc1)CC(=O)O [Compound 8, (3S)-3-{[({(1S)-3-(methylsulfanyl)-1-[(phenylsulfanyl)methyl]propyl}amino)carbonyl]amino}-4-(phenylsulfanyl)butanoic acid]
14 | 100 | 25000 | – | CCCC[C@@H](CSc1cccc(NCc2ccccc2C)c1)OC(=O)N[C@@H](CC(=O)O)c1ccc2c(c1)OCO2 [Compound 15, (3S)-3-(1,3-benzodioxol-5-yl)-3-{[({(1S)-1-[({3-[(2-methylbenzyl)amino]phenyl}thio)methyl]pentyl}oxy)carbonyl]amino}propanoic acid]
15 | 100 | 1500 | – | CCCC[C@@H](COCc1cccs1)NC(=O)N[C@@H](CC(=O)O)c1ccc2c(c1)OCO2 [Compound 22, (3S)-3-(1,3-benzodioxol-5-yl)-3-{[({(1S)-1-[(2-thienylmethoxy)methyl]pentyl}amino)carbonyl]amino}propanoic acid]
16 | 100 | 200 | – | O=C(O)C[C@H](NC(=O)N[C@@H](CCCCNC(=O)OCc1ccccc1)C(=O)NCc1cccs1)c1ccc2c(c1)OCO2 [Compound 27, (9S,13S)-13-(1,3-benzodioxol-5-yl)-3,11-dioxo-1-phenyl-9-{[(2-thienylmethyl)amino]carbonyl}-2-oxa-4,10,12-triazapentadecan-15-oic acid]
17 | – | – | 250 | CCCC[C@H](NC(=O)N[C@@H](CC(=O)O)c1ccc2c(c1)OCO2)C(=O)NCc1cccs1 [Compound 34, (3S)-3-(1,3-benzodioxol-5-yl)-3-([((1S)-1-[(2-thienylmethyl)amino]carbonylpentyl)amino]carbonylamino)propanoic acid]
18 | – | – | 350 | CCCC[C@H](NC(=O)N[C@@H](CC(=O)O)c1ccc2c(c1)OCO2)C(=O)Nc1ccccc1C(C)=O [Compound 35, (3S)-3-(1,3-benzodioxol-5-yl)-3-([((1S)-1-[(2-acetylphenyl)amino]carbonylpentyl)amino]carbonylamino)propanoic acid]
19 | – | – | 1000 | CCCC[C@H](NC(=O)N[C@@H](CC(=O)O)c1ccc2c(c1)OCO2)C(=O)Nc1ccc(C(C)=O)cc1 [Compound 36, 3-(3S)-3-(1,3-benzodioxol-5-yl)-3-([((1S)-1-[(4-acetylphenyl)amino]carbonylpentyl)amino]carbonylamino)propanoic acid]
20 | – | – | 30 | CCCC[C@H](NC(=O)N[C@@H](CC(=O)O)c1ccc2c(c1)OCO2)C(=O)NCc1ccc(NCc2cccs2)cc1 [Compound 37, 3-(3S)-3-(1,3-benzodioxol-5-yl)-3-([((1S)-1-[(4-(2-thienylmethyl)aminobenzyl)amino]carbonylpentyl)amino]carbonylamino)propanoic acid]
21 | – | – | 20 | CCCC[C@H](NC(=O)N[C@@H](CC(=O)O)c1ccc2c(c1)OCO2)C(=O)NCc1ccc(OCc2ccccc2C)c(OC)c1 [Compound 38, 3-(3S)-3-(1,3-benzodioxol-5-yl)-3-([((1S)-1-[(4-(2-methylbenzyloxy)-3-methoxybenzyl)amino]carbonylpentyl)amino]carbonylamino)propanoic acid]
22 | – | – | 50 | CCCC[C@H](NC(=O)N[C@@H](CC(=O)O)c1ccc2c(c1)OCO2)C(=O)NCc1ccc(NCc2ccccc2C)cc1 [Compound 39]
23 | – | – | 120 | CCCC[C@H](NC(=O)N[C@@H](CC(=O)O)c1ccc2c(c1)OCO2)C(=O)NCc1ccc(NCc2nccs2)cc1 [Compound 40, 3(3S)-3-(1,3-benzodioxol-5-yl)-3-([((1S)-1-[(4-(1,3-thiazol-2-ylmethyl)aminobenzyl)amino]carbonylpentyl)amino]carbonylamino)propanoic acid]
24 | – | – | 100 | CCCC[C@H](NC(=O)N[C@@H](CC(=O)O)c1ccc2c(c1)OCO2)C(=O)NCc1ccc(NCc2ccc(C)s2)cc1 [Compound 41, 3(3S)-3-(1,3-benzodioxol-5-yl)-3-([((1S)-1-[(4-(5-methyl-2-thienylmethyl)aminobenzyl)amino]carbonylpentyl)amino]carbonylamino)propanoic acid]
25 | – | – | 60 | CCCC[C@H](NC(=O)N[C@@H](CC(=O)O)c1ccc2c(c1)OCO2)C(=O)NCc1ccc(NS(=O)(=O)c2cccs2)cc1 [Compound 42, 3(3S)-3-(1,3-benzodioxol-5-yl)-3-([((1S)-1-[(4-(2-thienylsulfonamido)benzyl)amino]carbonylpentyl)amino]carbonylamino)propanoic acid]
26 | – | – | 120 | CCCC[C@H](NC(=O)N[C@@H](CC(=O)O)c1ccc2c(c1)OCO2)C(=O)NCc1ccc(NCc2cccc(C)n2)cc1 [Compound 43]
27 | 99 | 7000 | – | O=C(O)C[C@H](NC(=O)N[C@@H](CC(=O)O)c1ccc2c(c1)OCO2)c1ccc2c(c1)OCO2 [N,N'-bis[(1S)-1-(1,3-benzodioxol-5-yl)-2-carboxyethyl]urea]
